Like-named read-outs stand apart in the source and are kept apart here.
Key:
[1] = Cytotoxicity (MTT assay / trypan blue exclusion test); type: cell-based; conditions: 7 or 10 days, 37° C., measure (IC50/CC50) not stated
Description: Two assays were performed to evaluate the potentiel toxicity of the compounds in infected cells:
1) Briefly, cells were grown in 96-well microtiter plates at 37° C. in complete culture medium in the presence of the compound to test. Control cells grown in the absence of the compound received the same amount of solvent used to dissolve the inhibitor (in this case, dimethylsulfoxide at a final concentration of 0.1 to 0.3%). After 7 or 10 days, MTT was added to the cultures for 4 hours at 37° C. as described in the literature (Schwartz et al., AIDS Res. Hum. Retrov. 4: 441-448, 1988; Mosmaun, J. Immunol. Meth., 65: 55-63, 1983) and the changes in absorbance associated with metabolism of MTT by viable cells was monitored with an ELISA microplate reader at a test wavelength of 540 nm.
2) The cells were grown as described above in 24-well microplates or 25-cm tissue culture flasks in the presence or absence of the tested compounds, and the cell viability after 7 or 10 days was determined by the trypan blue exclusion test, using a hemacytometer and a microscope at 100× magnification.

[2] = biological target: T1, recombinant HIV-1 protease (Human immunodeficiency virus type 1 group M subtype B, UniProt P04585); experiment: Fluorometric (FRET) enzymatic assay for the inhibition constant (Ki) against the HIV protease; type: biochemical
T1 construct: recombinant HIV-1 protease; purchased Bachem Bioscience
Source text: Enzymatic Assay for Determining the Inhibition Constant (Ki) of Synthetic Compounds Prepared Against the HIV Protease
This is a fluorometric assay based on the cleavage by protease of a substrate carrying a donor group (EDANS, excitation at 340 nm and emission at 490 nm) and an acceptor group (DABCYL) on each side of the cleavage site, interacting together through fluorescence resonance energy transfer (FRET). Cleavage of the substrate by protease stops energy exchange between the two groups, resulting in a time-dependent increase in fluorescence intensity that is linearly related to the extent of substrate hydrolysis.
The enzymatic assay is done at 30° C. in a spectrophotometer microcuvet, in a total volume of 400 μL. The apparatus used for readings is a UV-visible Cary 1 spectrophotometer made by Varian. The reaction is run first in the absence of protease inhibitors for 2 min, using 355 μL of buffer at pH 4.7 (sodium acetate 100 mM, NaCl 1 M, EDTA 1 mM, DTT 1 mM, dimethylsulfoxide 10%, and BSA 1 mg/mL), 40 μL of substrate H-2930 from Molecular Probes (final concentration 10 μM) and 5 μL of recombinant HIV-1 protease (final concentration 18.3 nM) purchased from Bachem Bioscience. Fluorescence readings at […] are taken continuously during the reaction, allowing determination of the enzyme's initial velocity (v0). At the end of the 2 min incubation, the potential inhibitor at a defined concentration in a volume of 2 μL is added to the reaction, and fluorescence readings are taken for another 2 min, allowing determination of enzyme velocity (vi) in the presence of the inhibitory compound. Several concentrations of the putative inhibitors are tested in the assay. After calculation of vo and vi, the inhibition constant (Ki) of the compound is determined using the equation of Henderson: [formula]
and [I]=inhibitor concentration, [S ]=substrate concentration, Km=Michaelis-Menten constant, Kiapp =apparent Ki
Note that the Michaelis-Menten constant of HIV protease is determined by running the assay without inhibitors, using several concentrations of substrate, and plotting the results as a Cornish-Bowden graph with the ratio substrate concentration/velocity as the ordinate and substrate concentration as the abscissa.

[3] = Table 1, benzylated D-mannitol derivatives, pH 4.7, 30° C., substrate 10 μM, protease 18.3 nM
[4] = Table 2, tetra-substituted D-mannitol derivatives, pH 4.7, 30° C., substrate 10 μM, protease 18.3 nM
[5] = Table 3, di- and tri-substituted D-mannitol derivatives, pH 4.7, 30° C., substrate 10 μM, protease 18.3 nM

Row | SMILES | Ki [2, 4] | further results
1 | O[C@@H]([C@H](O)[C@@H](COCc1ccccc1)OCc1ccccc1)[C@@H](COCc1ccccc1)OCc1ccccc1 [Compound 1, 1,2,5,6-tetra-O-benzyl-D-mannitol] |  | CC50 [1]: 15 µM; Ki [2]: 2 µM
2 | O[C@@H]([C@H](O)[C@@H](COCc1ccc(OCc2ccccc2)cc1)OCc1ccc(F)cc1)[C@@H](COCc1ccc(OCc2ccccc2)cc1)OCc1ccc(F)cc1 [Compound 58, 1,6-di-O-(4-benzyloxybenzyl)-2,5-di-O-(4-fluorobenzyl)-D-mannitol] |  | Ki [2, 3]: 5 µM
3 | COC(=O)c1ccc(CO[C@H](COCc2ccccc2)[C@@H](O)[C@H](O)[C@@H](COCc2ccccc2)OCc2ccc(C(=O)O)cc2)cc1 [Compound 59, 1,6-di-O-benzyl-2-O-(4-carboxybenzyl)-5-O-(4-carbomethoxybenzyl)-D-mannitol] |  | Ki [2, 3]: 1.4 µM
4 | N#Cc1ccc(CO[C@H](COCc2ccccc2)[C@@H](O)[C@H](O)[C@@H](COCc2ccccc2)OCc2ccc(C(N)=O)cc2)cc1 [Compound 60, 1,6-di-O-benzyl-2-O-(4-cyanobenzyl)-5-O-(4-carboxamidobenzyl)-D-mannitol] |  | Ki [2, 3]: 13 µM
5 | O=[N+]([O-])c1ccc(CO[C@H](COCc2ccccc2)[C@@H](O)[C@H](O)[C@@H](COCc2ccccc2)OCc2ccccc2)cc1 [Compound 61] |  | Ki [2, 3]: 23 µM
6 | O[C@@H]([C@H](O)[C@@H](COCc1ccccc1F)OCc1ccc(F)cc1)[C@@H](COCc1ccccc1F)OCc1ccccc1 [Compound 62, 1,6-di-O-(2-fluorobenzyl)-2-O-benzyl-5-O-(4-fluorobenzyl)-D-mannitol] |  | Ki [2, 3]: 0.22 µM
7 | O[C@@H]([C@H](O)[C@@H](COCc1ccccc1F)OCc1ccc(F)cc1)[C@@H](COCc1ccccc1)OCc1ccc(F)cc1 [Compound 63, 1-O-benzyl-6-O-(2-fluorobenzyl)-2,5-di-O-(4-fluorobenzyl)-D-mannitol] |  | Ki [2, 3]: 0.89 µM
8 | Oc1ccc(COC[C@@H](OCc2ccc(F)cc2)[C@@H](O)[C@H](O)[C@@H](COCc2ccc(OCc3ccccc3)cc2)OCc2ccc(F)cc2)cc1 [Compound 76, 1-O-(4-hydroxybenzyl)-6-O-(4-benzyloxybenzyl)-2,5-di-O-(4-fluorobenzyl)-D-mannitol] |  | Ki [2, 3]: 0.9 µM
9 | C=CCOC[C@@H](OCC=C)[C@@H](O)[C@H](O)[C@@H](COCC=C)OCC=C [Compound 78, 1,2,5,6-tetra-O-allyl-D-mannitol] | 190 µM | 
10 | O[C@@H]([C@H](O)[C@@H](COCC1CC1)OCC1CC1)[C@@H](COCC1CC1)OCC1CC1 [Compound 79, 1,2,5,6-tetra-O-cyclopropylmethyl-D-mannitol] | 21 µM | 
11 | O[C@@H]([C@H](O)[C@@H](COCc1ccccc1)OCc1ccc2ccccc2c1)[C@@H](COCc1ccccc1)OCc1ccc2ccccc2c1 [Compound 80, 1,6-di-O-benzyl-2,5-di-O-(2-naphthylmethyl)-D-mannitol] | > 1.25 µM | 
12 | C=CCO[C@H](COCc1ccccc1)[C@@H](O)[C@H](O)[C@@H](COCc1ccccc1)OCC=C [Compound 82, 1,6-di-O-benzyl-2,5-di-O-allyl-D-mannitol] | 11 µM | 
13 | O[C@@H]([C@H](O)[C@@H](COCc1ccccc1)OCC1CC1)[C@@H](COCc1ccccc1)OCC1CC1 [Compound 83, 1,6-di-O-benzyl-2,5-di-O-cyclopropylmethyl-D-mannitol] | 9 µM | 
14 | O[C@@H]([C@H](O)[C@@H](COCc1ccccc1)OCC=Cc1ccccc1)[C@@H](COCc1ccccc1)OCC=Cc1ccccc1 [Compound 84, 1,6-di-O-benzyl, 2,5-di-O-cinnamyl-D-mannitol] | > 1 µM | 
15 | O[C@@H]([C@H](O)[C@@H](COCc1ccccc1)OCc1ccncc1)[C@@H](COCc1ccccc1)OCc1ccncc1 [Compound 86, 1,6-di-O-benzyl-2,5-di-O-(4-pyridylmethyl)-D-mannitol] | > 50 µM | 
16 | O[C@@H]([C@H](O)[C@@H](COCc1ccccc1)OCc1ccccn1)[C@@H](COCc1ccccc1)OCc1ccccn1 [Compound 88, 1,6-di-O-benzyl-2,5-di-O-(2-pyridylmethyl)-D-mannitol] | 28 µM | 
17 | O[C@@H]([C@H](O)[C@@H](COCC1CC1)OCc1ccccc1)[C@@H](COCC1CC1)OCc1ccccc1 [Compound 89, 1,6-di-O-cyclopropylmethyl-2,5-di-O-dibenzyl-D-mannitol] | 16 µM | 
18 | C=CCOC[C@@H](OCc1ccccc1)[C@@H](O)[C@H](O)[C@@H](COCC=C)OCc1ccccc1 [Compound 90, 1,6-di-O-allyl-2,5-di-O-benzyl-D-mannitol] | 12 µM | 
19 | O[C@@H]([C@H](O)[C@@H](COCc1cccs1)OCc1ccc(F)cc1)[C@@H](COCc1cccs1)OCc1ccc(F)cc1 [Compound 93, 1,6-di-O-(2-thienylmethyl)-2,5-di-O-(4-fluorophenylmethyl)-D-mannitol] | 0.4 µM | 
20 | O[C@@H]([C@H](O)[C@@H](COCC=Cc1ccccc1)OCc1ccccc1)[C@@H](COCC=Cc1ccccc1)OCc1ccccc1 [Compound 94, 1,6-di-O-cinnamyl-2,5-di-O-benzyl-D-mannitol] | > 1 µM | 
21 | O[C@@H]([C@H](O)[C@@H](COCc1ccccc1)OCc1cccs1)[C@@H](COCc1ccccc1)OCc1ccc(F)cc1 [Compound 96, 1,6-di-O-benzyl-2-O-(4-fluorobenzyl)-5-O-(2-thienylmethyl)-D-mannitol] | 0.23 µM | 
22 | O[C@@H]([C@H](O)[C@@H](COCc1ccccc1F)OCc1cccs1)[C@@H](COCc1ccccc1F)OCc1ccc(F)cc1 [Compound 97, 1,6-di-O-(2-fluorobenzyl)-2-O-(4-fluorobenzyl)-5-O-(2-thienylmethyl)-D-mannitol] | 0.23 µM | 
23 | O[C@@H]([C@H](O)[C@@H](COCc1ccccc1)OCc1ccccc1)[C@H](O)COCc1ccccc1 [Compound 98, 1,2,6-tri-O-benzyl-D-mannitol] |  | Ki [2, 5]: 33 µM
24 | O=[N+]([O-])c1ccc(CO[C@H](COCc2ccccc2)[C@@H](O)[C@H](O)[C@H](O)COCc2ccccc2)cc1 [Compound 99, 1,6-di-O-benzyl-2-O-(4-nitrobenzyl)-D-mannitol] |  | Ki [2, 5]: 45 µM
25 | CSC(=S)O[C@H](COCc1ccccc1)[C@@H](O)[C@H](O)[C@@H](COCc1ccccc1)OC(=S)SC [Compound 101, 1,6-di-O-benzyl-2,5-di-O-(methylthiothioxo)-D-mannitol] |  | Ki [2, 5]: > 5 µM
26 | CSC(=S)O[C@H](COCc1ccccc1)[C@@H](O)[C@H](O)[C@@H](COCc1ccccc1)OCc1ccc(F)cc1 [Compound 106, 1,6-di-O-benzyl-2-O-(4-fluorobenzyl)-5-O-(methylthiothioxo)-D-mannitol] |  | Ki [2, 5]: > 5 µM
27 | O=C(O[C@H](COCc1ccccc1)[C@@H](O)[C@H](O)[C@@H](COCc1ccccc1)OC(=O)c1ccccc1)c1ccccc1 [Compound 109, 1,6-di-O-benzyl-2,5-di-O-benzoyl-D-mannitol] |  | Ki [2, 5]: 10 µM
